# In patent EP4603105A1, “PHARMACEUTICAL COMPOSITION CONTAINING CYCLIC COMPOUND HAVING SELECTIVE KRAS INHIBITORY EFFECT AGAINST HRAS AND NRAS” (CHUGAI SEIYAKU KABUSHIKI KAISHA, priority 2022, dated 2024):
# Where a SMILES comes first, the peptide text is derived from it. Bridges are numbered along the chain shown (N, C = ends). [ ]: non-standard residue; d: D form. The star is where a group is joined. hPhe(3-Cl-4-CF3) = N[C@@H](CCc1ccc(C(F)(F)F)c(Cl)c1)C(=O)O; NPrPhe(4-CF3) = CCCN[C@@H](Cc1ccc(C(F)(F)F)cc1)C(=O)O; NMeGly(cPent) = CN[C@H](C(=O)O)C1CCCC1; Pro(4,4-F2) = O=C(O)[C@@H]1CC(F)(F)CN1; Hyp = O=C(O)[C@@H]1C[C@@H](O)CN1; NMeD = CN[C@@H](CC(=O)O)C(=O)O; NMeL = CN[C@@H](CC(C)C)C(=O)O; N(Me)CH2CH2OMe = COCCN(C)*; Morpholide = C1CN(*)CCO1; Ac5c = NC1(C(=O)O)CCCC1; Aze = O=C(O)[C@@H]1CCN1; Ac4c = NC1(C(=O)O)CCC1; NEtG = CCNCC(=O)O; Sar = CNCC(=O)O
# Columns and labels:
# [1] = molecular target: GDP-bound NRAS wild-type protein (Homo sapiens, UniProt P01111); test: Binding to NRAS by surface plasmon resonance (SPR), KD and KD ratio to KRAS; settings: ratio of the KD value with respect to GDP-bound NRAS wild-type protein to the KD value with respect to KRAS
# Chain of GDP-bound NRAS wild-type protein (P01111 whole entry): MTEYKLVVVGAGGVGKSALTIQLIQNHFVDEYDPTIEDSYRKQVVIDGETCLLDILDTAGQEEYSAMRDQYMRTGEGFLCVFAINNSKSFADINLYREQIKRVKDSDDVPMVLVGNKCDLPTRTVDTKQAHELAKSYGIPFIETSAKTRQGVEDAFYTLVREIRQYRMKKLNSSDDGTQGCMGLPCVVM
# Outline: (§1)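 Each cycle, GDP-bound biotin-Avi RAS was captured (~100–300 RU), compound concentrations were injected low to high for 75 s each at 100 µL/min, then the chip was regenerated. Buffer: HBS pH 7.4, 10 mM MgCl2, 10 µM GDP, 1 mM DTT, 4% DMSO; 30°C. KD from a 1:1 binding model.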
# [2] = molecular target: HRAS wild-type protein (Homo sapiens, UniProt P01112); test: Binding to HRAS by surface plasmon resonance (SPR), KD and KD ratio to KRAS; settings: ratio of the KD value with respect to HRAS wild-type protein to the KD value with respect to KRAS
# Chain of HRAS wild-type protein (P01112 whole entry): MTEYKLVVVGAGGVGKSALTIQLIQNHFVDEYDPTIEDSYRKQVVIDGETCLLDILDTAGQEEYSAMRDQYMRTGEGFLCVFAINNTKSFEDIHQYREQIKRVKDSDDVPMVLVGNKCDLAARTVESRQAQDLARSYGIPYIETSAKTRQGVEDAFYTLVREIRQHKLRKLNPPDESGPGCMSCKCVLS
# Outline: as §1
# [3] = system: human lung cancer strain NCI-H441; assay type: cell-based
# Outline: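 Signal came from […] measured per well once the reagent was added. Beforehand, cells were cultured at 37°C and 5% carbon dioxide on a compound series serially diluted in dimethyl sulfoxide.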
Structure (SMILES),IC50 [3] [nM],NRAS /KRAS [1],HRAS /KRAS [2]
CCCN1C(=O)[C@@H]2CCN2C(=O)CN(C)C(=O)[C@H]([C@@H](C)CC)NC(=O)[C@H](CC(C)C)N(C)C(=O)C[C@@H](C(=O)N(C)C)NC(=O)[C@H](C2CCCC2)N(C)C(=O)C2(CCCC2)NC(=O)[C@@H]2C[C@@H](OCC)CN2C(=O)[C@H](CCc2ccc(C(F)(F)F)c(Cl)c2)NC(=O)CN(C)C(=O)[C@@H]1Cc1ccc(C(F)(F)F)cc1 [PP0389] ([NMeL]I[Sar][Aze][NPrPhe(4-CF3)][Sar][hPhe(3-Cl-4-CF3)][Hyp](Et)[Ac5c][NMeGly(cPent)]D-NMe2; lactam N-11),3,C (A compound having a KD ratio of 0.1 or more and less than 3 is denoted as C),B (a compound having 3 or more and less than 10 is denoted as B)
CCCN1C(=O)[C@@H]2CCN2C(=O)CN(C)C(=O)[C@H]([C@@H](C)CC)NC(=O)[C@H](CC(C)C)N(C)C(=O)C[C@@H](C(=O)N(C)C)NC(=O)[C@H](C2CCCC2)N(C)C(=O)C2(CCC2)NC(=O)[C@@H]2C[C@@H](OCC)CN2C(=O)[C@H](CCc2ccc(C(F)(F)F)c(Cl)c2)NC(=O)CN(C)C(=O)[C@@H]1Cc1ccc(C(F)(F)F)cc1 [PP0390] ([NMeL]I[Sar][Aze][NPrPhe(4-CF3)][Sar][hPhe(3-Cl-4-CF3)][Hyp](Et)[Ac4c][NMeGly(cPent)]D-NMe2; lactam N-11),7.6,C (A compound having a KD ratio of 0.1 or more and less than 3 is denoted as C),B (a compound having 3 or more and less than 10 is denoted as B)
"CCCN1C(=O)CN(C)C(=O)CN(CC)C(=O)[C@H]([C@@H](C)CC)NC(=O)[C@H](CC(C)C)N(C)C(=O)C[C@@H](C(=O)N2CCOCC2)N(C)C(=O)[C@H](C2CCCC2)N(C)C(=O)C2(CCCC2)NC(=O)[C@@H]2CC(F)(F)CN2C(=O)[C@H](CCc2ccc(C(F)(F)F)c(Cl)c2)NC(=O)CN(C)C(=O)[C@@H]1Cc1ccc(C(F)(F)F)cc1 [PP0399] ([NMeL]I[NEtG][Sar][NPrPhe(4-CF3)][Sar][hPhe(3-Cl-4-CF3)][Pro(4,4-F2)][Ac5c][NMeGly(cPent)][NMeD]-Morpholide; lactam N-11)",6.3,B (a compound having 3 or more and less than 10 is denoted as B),C (A compound having a KD ratio of 0.1 or more and less than 3 is denoted as C)
"CCCN1C(=O)CN(C)C(=O)CN(CC)C(=O)[C@H]([C@@H](C)CC)NC(=O)[C@H](CC(C)C)N(C)C(=O)C[C@@H](C(=O)N2CCOCC2)N(C)C(=O)[C@H](C2CCCC2)N(C)C(=O)C2(CCC2)NC(=O)[C@@H]2CC(F)(F)CN2C(=O)[C@H](CCc2ccc(C(F)(F)F)c(Cl)c2)NC(=O)CN(C)C(=O)[C@@H]1Cc1ccc(C(F)(F)F)cc1 [PP0400] ([NMeL]I[NEtG][Sar][NPrPhe(4-CF3)][Sar][hPhe(3-Cl-4-CF3)][Pro(4,4-F2)][Ac4c][NMeGly(cPent)][NMeD]-Morpholide; lactam N-11)",7.8,B (a compound having 3 or more and less than 10 is denoted as B),B (a compound having 3 or more and less than 10 is denoted as B)
CCCN1C(=O)CN(C)C(=O)CN(CC)C(=O)[C@H]([C@@H](C)CC)NC(=O)[C@H](CC(C)C)N(C)C(=O)C[C@@H](C(=O)N2CCOCC2)N(C)C(=O)[C@H](C2CCCC2)N(C)C(=O)C2(CCC2)NC(=O)[C@@H]2C[C@@H](OCC)CN2C(=O)[C@H](CCc2ccc(C(F)(F)F)c(Cl)c2)NC(=O)CN(C)C(=O)[C@@H]1Cc1ccc(C(F)(F)F)cc1 [PP0401] ([NMeL]I[NEtG][Sar][NPrPhe(4-CF3)][Sar][hPhe(3-Cl-4-CF3)][Hyp](Et)[Ac4c][NMeGly(cPent)][NMeD]-Morpholide; lactam N-11),5.1,B (a compound having 3 or more and less than 10 is denoted as B),B (a compound having 3 or more and less than 10 is denoted as B)
"CCCN1C(=O)CN(C)C(=O)[C@@H]2CCN2C(=O)[C@H]([C@@H](C)CC)NC(=O)[C@H](CC(C)C)N(C)C(=O)C[C@@H](C(=O)N2CCOCC2)N(C)C(=O)[C@H](C2CCCC2)N(C)C(=O)C2(CCCC2)NC(=O)[C@@H]2CC(F)(F)CN2C(=O)[C@H](CCc2ccc(C(F)(F)F)c(Cl)c2)NC(=O)CN(C)C(=O)[C@@H]1Cc1ccc(C(F)(F)F)cc1 [PP0403] ([NMeL]I[Aze][Sar][NPrPhe(4-CF3)][Sar][hPhe(3-Cl-4-CF3)][Pro(4,4-F2)][Ac5c][NMeGly(cPent)][NMeD]-Morpholide; lactam N-11)",19.4,B (a compound having 3 or more and less than 10 is denoted as B),B (a compound having 3 or more and less than 10 is denoted as B)

# Compounds with a lower IC50 [3], results first:
IC50 [3] [nM],Structure (SMILES),NRAS /KRAS [1],HRAS /KRAS [2]
1.1,CCCN1C(=O)CN(C)C(=O)CN(C)C(=O)[C@H]([C@@H](C)CC)NC(=O)[C@H](CC(C)C)N(C)C(=O)C[C@@H](C(=O)N(C)CCOC)N(C)C(=O)[C@H](C2CCCC2)N(C)C(=O)C2(CCCC2)NC(=O)[C@@H]2CCCN2C(=O)[C@H](CCc2ccc(C(F)(F)F)c(Cl)c2)NC(=O)CN(C)C(=O)[C@@H]1Cc1ccc(C(F)(F)F)cc1 [PP0391] ([NMeL]I[Sar][Sar][NPrPhe(4-CF3)][Sar][hPhe(3-Cl-4-CF3)]P[Ac5c][NMeGly(cPent)][NMeD]-{N(Me)CH2CH2OMe}; lactam N-11),B (a compound having 3 or more and less than 10 is denoted as B),B (a compound having 3 or more and less than 10 is denoted as B)
0.9,CCCN1C(=O)CN(C)C(=O)CN(C)C(=O)[C@H]([C@@H](C)CC)NC(=O)[C@H](CC(C)C)N(C)C(=O)C[C@@H](C(=O)N2CCOCC2)N(C)C(=O)[C@H](C2CCCC2)N(C)C(=O)C2(CCC2)NC(=O)[C@@H]2C[C@@H](OCC)CN2C(=O)[C@H](CCc2ccc(C(F)(F)F)c(Cl)c2)NC(=O)CN(C)C(=O)[C@@H]1Cc1ccc(C(F)(F)F)cc1 [PP0392] ([NMeL]I[Sar][Sar][NPrPhe(4-CF3)][Sar][hPhe(3-Cl-4-CF3)][Hyp](Et)[Ac4c][NMeGly(cPent)][NMeD]-Morpholide; lactam N-11),B (a compound having 3 or more and less than 10 is denoted as B),C (A compound having a KD ratio of 0.1 or more and less than 3 is denoted as C)
2.7,CCCN1C(=O)CN(C)C(=O)CNC(=O)[C@H]([C@@H](C)CC)NC(=O)[C@H](CC(C)C)N(C)C(=O)C[C@@H](C(=O)N2CCOCC2)N(C)C(=O)[C@H](C2CCCC2)N(C)C(=O)C2(CCC2)NC(=O)[C@@H]2CCCN2C(=O)[C@H](CCc2ccc(C(F)(F)F)c(Cl)c2)NC(=O)CN(C)C(=O)[C@@H]1Cc1ccc(C(F)(F)F)cc1 [PP0393] ([NMeL]IG[Sar][NPrPhe(4-CF3)][Sar][hPhe(3-Cl-4-CF3)]P[Ac4c][NMeGly(cPent)][NMeD]-Morpholide; lactam N-11),B (a compound having 3 or more and less than 10 is denoted as B),B (a compound having 3 or more and less than 10 is denoted as B)
2.6,"CCCN1C(=O)CN(C)C(=O)CNC(=O)[C@H]([C@@H](C)CC)NC(=O)[C@H](CC(C)C)N(C)C(=O)C[C@@H](C(=O)N2CCOCC2)N(C)C(=O)[C@H](C2CCCC2)N(C)C(=O)C2(CCCC2)NC(=O)[C@@H]2CC(F)(F)CN2C(=O)[C@H](CCc2ccc(C(F)(F)F)c(Cl)c2)NC(=O)CN(C)C(=O)[C@@H]1Cc1ccc(C(F)(F)F)cc1 [PP0394] ([NMeL]IG[Sar][NPrPhe(4-CF3)][Sar][hPhe(3-Cl-4-CF3)][Pro(4,4-F2)][Ac5c][NMeGly(cPent)][NMeD]-Morpholide; lactam N-11)",C (A compound having a KD ratio of 0.1 or more and less than 3 is denoted as C),C (A compound having a KD ratio of 0.1 or more and less than 3 is denoted as C)
0.8,"CCCN1C(=O)CN(C)C(=O)CNC(=O)[C@H]([C@@H](C)CC)NC(=O)[C@H](CC(C)C)N(C)C(=O)C[C@@H](C(=O)N2CCOCC2)N(C)C(=O)[C@H](C2CCCC2)N(C)C(=O)C2(CCC2)NC(=O)[C@@H]2CC(F)(F)CN2C(=O)[C@H](CCc2ccc(C(F)(F)F)c(Cl)c2)NC(=O)CN(C)C(=O)[C@@H]1Cc1ccc(C(F)(F)F)cc1 [PP0395] ([NMeL]IG[Sar][NPrPhe(4-CF3)][Sar][hPhe(3-Cl-4-CF3)][Pro(4,4-F2)][Ac4c][NMeGly(cPent)][NMeD]-Morpholide; lactam N-11)",B (a compound having 3 or more and less than 10 is denoted as B),C (A compound having a KD ratio of 0.1 or more and less than 3 is denoted as C)
0.9,CCCN1C(=O)CN(C)C(=O)CNC(=O)[C@H]([C@@H](C)CC)NC(=O)[C@H](CC(C)C)N(C)C(=O)C[C@@H](C(=O)N2CCOCC2)N(C)C(=O)[C@H](C2CCCC2)N(C)C(=O)C2(CCCC2)NC(=O)[C@@H]2C[C@@H](OCC)CN2C(=O)[C@H](CCc2ccc(C(F)(F)F)c(Cl)c2)NC(=O)CN(C)C(=O)[C@@H]1Cc1ccc(C(F)(F)F)cc1 [PP0396] ([NMeL]IG[Sar][NPrPhe(4-CF3)][Sar][hPhe(3-Cl-4-CF3)][Hyp](Et)[Ac5c][NMeGly(cPent)][NMeD]-Morpholide; lactam N-11),B (a compound having 3 or more and less than 10 is denoted as B),C (A compound having a KD ratio of 0.1 or more and less than 3 is denoted as C)
0.7,CCCN1C(=O)CN(C)C(=O)CNC(=O)[C@H]([C@@H](C)CC)NC(=O)[C@H](CC(C)C)N(C)C(=O)C[C@@H](C(=O)N2CCOCC2)N(C)C(=O)[C@H](C2CCCC2)N(C)C(=O)C2(CCC2)NC(=O)[C@@H]2C[C@@H](OCC)CN2C(=O)[C@H](CCc2ccc(C(F)(F)F)c(Cl)c2)NC(=O)CN(C)C(=O)[C@@H]1Cc1ccc(C(F)(F)F)cc1 [PP0397] ([NMeL]IG[Sar][NPrPhe(4-CF3)][Sar][hPhe(3-Cl-4-CF3)][Hyp](Et)[Ac4c][NMeGly(cPent)][NMeD]-Morpholide; lactam N-11),C (A compound having a KD ratio of 0.1 or more and less than 3 is denoted as C),C (A compound having a KD ratio of 0.1 or more and less than 3 is denoted as C)
